Results from ChEMBL document CHEMBL3991601, “The target landscape of clinical kinase drugs” (Science, 2017).
Activity calls are given as the source filed them.

Biological target: T1, Succinate--CoA ligase [ADP-forming] subunit beta, mitochondrial (Homo sapiens, UniProt Q9P2R7)
T1 sequence (Q9P2R7 whole entry): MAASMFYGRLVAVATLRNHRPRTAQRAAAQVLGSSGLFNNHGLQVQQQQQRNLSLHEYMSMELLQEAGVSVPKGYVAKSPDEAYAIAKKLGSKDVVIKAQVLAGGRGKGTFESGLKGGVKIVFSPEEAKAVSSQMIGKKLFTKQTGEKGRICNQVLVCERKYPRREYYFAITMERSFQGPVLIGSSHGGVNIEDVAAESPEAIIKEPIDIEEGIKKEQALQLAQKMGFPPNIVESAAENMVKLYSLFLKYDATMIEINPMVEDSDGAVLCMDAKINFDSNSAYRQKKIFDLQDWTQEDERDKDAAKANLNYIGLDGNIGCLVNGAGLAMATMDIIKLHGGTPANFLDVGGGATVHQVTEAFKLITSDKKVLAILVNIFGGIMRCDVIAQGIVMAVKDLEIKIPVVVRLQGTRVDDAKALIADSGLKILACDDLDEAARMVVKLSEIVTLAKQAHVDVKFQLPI
Details: not given
Further: in the data inactive means no Kd found up to 30 µM.

SMILES	Kd
Cc1cc(Nc2cc(N3CCN(C)CC3)nc(/C=C/c3ccccc3)n2)n[nH]1 [ENMD-2076]	> 30 µM (inactive)
CCn1c(-c2nonc2N)nc2c(C#CC(C)(C)O)ncc(OC[C@H]3CCCNC3)c21 [GSK-690693]	> 30 µM (inactive)
COC(=O)[C@@]1(O)C[C@H]2O[C@]1(C)n1c3ccccc3c3c4c(c5c6ccccc6n2c5c31)C(=O)NC4 [K-252A]	> 30 µM (inactive)
COc1cc2nccc(Oc3ccc(NC(=O)NC4CC4)c(Cl)c3)c2cc1C(N)=O [LENVATINIB]	> 30 µM (inactive)

Biological target: Tyrosine-protein kinase SYK (Homo sapiens, UniProt P43405)
Details: not given

SMILES	Kd
COc1cc2nccc(Oc3ccc(NC(=O)NC4CC4)c(Cl)c3)c2cc1C(N)=O [LENVATINIB]	> 30 µM (inactive)

Biological target: T2, Peroxisomal acyl-coenzyme A oxidase 3 (Homo sapiens, UniProt O15254)
T2 sequence (O15254 whole entry): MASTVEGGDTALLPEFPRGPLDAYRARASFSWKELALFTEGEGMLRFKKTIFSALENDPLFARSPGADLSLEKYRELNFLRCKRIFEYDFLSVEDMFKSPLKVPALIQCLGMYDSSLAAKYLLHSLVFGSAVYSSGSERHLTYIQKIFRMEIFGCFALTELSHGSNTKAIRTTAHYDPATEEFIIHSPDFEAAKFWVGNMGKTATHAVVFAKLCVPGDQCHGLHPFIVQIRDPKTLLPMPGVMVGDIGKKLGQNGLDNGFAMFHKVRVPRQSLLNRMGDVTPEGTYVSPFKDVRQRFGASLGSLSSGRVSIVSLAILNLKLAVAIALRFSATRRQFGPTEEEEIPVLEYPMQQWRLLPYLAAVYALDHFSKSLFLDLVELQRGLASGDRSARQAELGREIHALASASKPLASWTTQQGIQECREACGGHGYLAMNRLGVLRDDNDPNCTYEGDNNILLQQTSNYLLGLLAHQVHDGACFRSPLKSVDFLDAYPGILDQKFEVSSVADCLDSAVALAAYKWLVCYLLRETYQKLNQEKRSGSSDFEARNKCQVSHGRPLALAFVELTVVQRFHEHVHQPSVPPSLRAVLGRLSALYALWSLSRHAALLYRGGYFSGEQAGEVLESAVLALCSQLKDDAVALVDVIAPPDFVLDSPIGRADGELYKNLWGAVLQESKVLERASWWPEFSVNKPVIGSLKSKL
Details: not given

SMILES	Kd
Cc1cc(Nc2cc(N3CCN(C)CC3)nc(/C=C/c3ccccc3)n2)n[nH]1 [ENMD-2076]	> 30 µM (inactive)
CCn1c(-c2nonc2N)nc2c(C#CC(C)(C)O)ncc(OC[C@H]3CCCNC3)c21 [GSK-690693]	> 30 µM (inactive)
COC(=O)[C@@]1(O)C[C@H]2O[C@]1(C)n1c3ccccc3c3c4c(c5c6ccccc6n2c5c31)C(=O)NC4 [K-252A]	> 30 µM (inactive)
COc1cc2nccc(Oc3ccc(NC(=O)NC4CC4)c(Cl)c3)c2cc1C(N)=O [LENVATINIB]	> 30 µM (inactive)

Biological target: Serine/threonine-protein kinase MRCK beta (Homo sapiens, UniProt Q9Y5S2)
Details: not given

Sequence of Serine/threonine-protein kinase MRCK beta (Q9Y5S2 whole entry): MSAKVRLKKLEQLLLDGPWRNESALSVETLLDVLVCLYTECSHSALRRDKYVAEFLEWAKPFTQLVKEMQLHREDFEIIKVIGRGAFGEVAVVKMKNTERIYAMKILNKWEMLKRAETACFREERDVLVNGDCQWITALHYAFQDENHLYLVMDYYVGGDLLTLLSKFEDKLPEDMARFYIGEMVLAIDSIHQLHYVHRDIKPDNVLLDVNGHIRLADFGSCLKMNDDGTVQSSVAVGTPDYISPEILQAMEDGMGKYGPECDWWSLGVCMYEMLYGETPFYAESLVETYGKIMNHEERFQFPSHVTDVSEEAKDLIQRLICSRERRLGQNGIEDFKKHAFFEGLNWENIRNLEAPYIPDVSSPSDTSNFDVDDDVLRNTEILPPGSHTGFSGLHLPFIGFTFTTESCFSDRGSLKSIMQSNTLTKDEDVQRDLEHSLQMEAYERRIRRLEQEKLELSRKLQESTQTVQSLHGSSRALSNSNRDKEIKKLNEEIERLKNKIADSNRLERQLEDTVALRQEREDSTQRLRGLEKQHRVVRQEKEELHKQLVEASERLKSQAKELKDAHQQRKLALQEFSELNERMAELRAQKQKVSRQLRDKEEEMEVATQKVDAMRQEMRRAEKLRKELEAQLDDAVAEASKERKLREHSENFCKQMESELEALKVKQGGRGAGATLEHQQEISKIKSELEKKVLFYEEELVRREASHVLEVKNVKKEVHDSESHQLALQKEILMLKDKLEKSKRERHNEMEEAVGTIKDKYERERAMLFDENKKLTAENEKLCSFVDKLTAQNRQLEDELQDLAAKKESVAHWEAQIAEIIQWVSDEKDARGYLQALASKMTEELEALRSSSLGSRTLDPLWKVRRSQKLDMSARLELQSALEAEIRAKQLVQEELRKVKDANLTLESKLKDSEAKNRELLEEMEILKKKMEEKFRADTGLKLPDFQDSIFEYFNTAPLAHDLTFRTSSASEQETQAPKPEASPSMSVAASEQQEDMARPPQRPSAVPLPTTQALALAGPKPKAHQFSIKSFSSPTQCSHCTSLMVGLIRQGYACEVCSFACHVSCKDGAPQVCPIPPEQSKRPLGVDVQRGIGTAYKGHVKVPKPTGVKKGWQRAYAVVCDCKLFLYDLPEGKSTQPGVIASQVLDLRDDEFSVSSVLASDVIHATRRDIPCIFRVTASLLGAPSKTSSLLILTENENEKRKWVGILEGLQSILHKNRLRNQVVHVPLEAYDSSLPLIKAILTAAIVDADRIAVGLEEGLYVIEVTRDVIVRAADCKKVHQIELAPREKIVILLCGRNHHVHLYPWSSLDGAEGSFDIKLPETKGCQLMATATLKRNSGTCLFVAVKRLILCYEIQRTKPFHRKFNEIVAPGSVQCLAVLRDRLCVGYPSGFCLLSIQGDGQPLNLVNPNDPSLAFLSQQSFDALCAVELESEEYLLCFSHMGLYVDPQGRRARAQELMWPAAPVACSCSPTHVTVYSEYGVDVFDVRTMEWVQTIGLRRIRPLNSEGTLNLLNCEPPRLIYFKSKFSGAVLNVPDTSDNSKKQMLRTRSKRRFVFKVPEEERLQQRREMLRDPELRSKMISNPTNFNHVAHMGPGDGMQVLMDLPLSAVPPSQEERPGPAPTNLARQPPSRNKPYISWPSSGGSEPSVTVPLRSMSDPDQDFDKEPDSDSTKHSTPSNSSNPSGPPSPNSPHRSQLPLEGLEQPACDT

SMILES	Kd
Cc1cc(Nc2cc(N3CCN(C)CC3)nc(/C=C/c3ccccc3)n2)n[nH]1 [ENMD-2076]	> 30 µM (inactive)
COC(=O)[C@@]1(O)C[C@H]2O[C@]1(C)n1c3ccccc3c3c4c(c5c6ccccc6n2c5c31)C(=O)NC4 [K-252A]	> 30 µM (inactive)
COc1cc2nccc(Oc3ccc(NC(=O)NC4CC4)c(Cl)c3)c2cc1C(N)=O [LENVATINIB]	> 30 µM (inactive)

Biological target: T3, Glycogen phosphorylase, liver form (Homo sapiens, UniProt P06737)
T3 sequence (P06737 whole entry): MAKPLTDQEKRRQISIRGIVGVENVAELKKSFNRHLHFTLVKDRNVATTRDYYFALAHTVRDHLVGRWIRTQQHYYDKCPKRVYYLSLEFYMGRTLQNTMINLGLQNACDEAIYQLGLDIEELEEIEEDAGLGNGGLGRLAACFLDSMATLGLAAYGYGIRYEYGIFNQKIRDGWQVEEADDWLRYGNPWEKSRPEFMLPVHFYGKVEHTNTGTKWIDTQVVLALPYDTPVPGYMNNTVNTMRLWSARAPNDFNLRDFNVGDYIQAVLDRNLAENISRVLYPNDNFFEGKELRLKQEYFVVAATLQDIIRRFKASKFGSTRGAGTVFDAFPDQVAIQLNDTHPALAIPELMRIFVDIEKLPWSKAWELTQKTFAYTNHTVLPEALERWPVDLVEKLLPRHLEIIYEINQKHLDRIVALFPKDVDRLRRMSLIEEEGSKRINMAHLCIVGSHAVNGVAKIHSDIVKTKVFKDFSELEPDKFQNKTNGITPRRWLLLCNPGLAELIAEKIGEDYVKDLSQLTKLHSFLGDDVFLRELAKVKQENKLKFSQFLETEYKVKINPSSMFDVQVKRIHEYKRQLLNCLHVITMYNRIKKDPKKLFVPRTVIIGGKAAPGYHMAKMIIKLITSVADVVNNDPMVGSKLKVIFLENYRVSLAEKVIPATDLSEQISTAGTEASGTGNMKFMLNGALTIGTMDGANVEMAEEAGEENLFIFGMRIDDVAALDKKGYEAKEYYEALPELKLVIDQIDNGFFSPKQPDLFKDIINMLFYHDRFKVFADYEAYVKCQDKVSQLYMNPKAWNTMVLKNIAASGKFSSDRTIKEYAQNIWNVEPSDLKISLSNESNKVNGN
Format: subcellular, K-562, COLO 205, SK-N-BE(2) and MV-4-11, Cell lysate
Details: read-out: Kd apparent

SMILES	Kd
Cc1cc(Nc2cc(N3CCN(C)CC3)nc(/C=C/c3ccccc3)n2)n[nH]1 [ENMD-2076]	> 30 µM (inactive)
CCn1c(-c2nonc2N)nc2c(C#CC(C)(C)O)ncc(OC[C@H]3CCCNC3)c21 [GSK-690693]	> 30 µM (inactive)
COC(=O)[C@@]1(O)C[C@H]2O[C@]1(C)n1c3ccccc3c3c4c(c5c6ccccc6n2c5c31)C(=O)NC4 [K-252A]	> 30 µM (inactive)
COc1cc2nccc(Oc3ccc(NC(=O)NC4CC4)c(Cl)c3)c2cc1C(N)=O [LENVATINIB]	> 30 µM (inactive)

Biological target: T4, Delta(24)-sterol reductase (Homo sapiens, UniProt Q15392)
T4 sequence (Q15392 whole entry): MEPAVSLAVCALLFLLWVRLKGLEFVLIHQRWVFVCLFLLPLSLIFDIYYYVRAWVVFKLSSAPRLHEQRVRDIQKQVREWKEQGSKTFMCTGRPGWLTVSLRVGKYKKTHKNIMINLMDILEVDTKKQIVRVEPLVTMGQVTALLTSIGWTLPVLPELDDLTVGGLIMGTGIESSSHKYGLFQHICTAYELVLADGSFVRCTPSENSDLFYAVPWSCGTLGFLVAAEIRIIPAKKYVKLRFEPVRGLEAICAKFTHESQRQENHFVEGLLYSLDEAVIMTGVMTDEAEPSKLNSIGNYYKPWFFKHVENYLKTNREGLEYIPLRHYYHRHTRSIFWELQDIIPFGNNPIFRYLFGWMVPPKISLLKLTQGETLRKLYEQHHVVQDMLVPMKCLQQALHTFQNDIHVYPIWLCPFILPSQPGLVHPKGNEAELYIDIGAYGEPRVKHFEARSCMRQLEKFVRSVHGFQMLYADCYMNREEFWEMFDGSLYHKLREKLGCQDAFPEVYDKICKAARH
Details: not given

SMILES	Kd
Cc1cc(Nc2cc(N3CCN(C)CC3)nc(/C=C/c3ccccc3)n2)n[nH]1 [ENMD-2076]	> 30 µM (inactive)
CCn1c(-c2nonc2N)nc2c(C#CC(C)(C)O)ncc(OC[C@H]3CCCNC3)c21 [GSK-690693]	> 30 µM (inactive)
COC(=O)[C@@]1(O)C[C@H]2O[C@]1(C)n1c3ccccc3c3c4c(c5c6ccccc6n2c5c31)C(=O)NC4 [K-252A]	> 30 µM (inactive)
COc1cc2nccc(Oc3ccc(NC(=O)NC4CC4)c(Cl)c3)c2cc1C(N)=O [LENVATINIB]	> 30 µM (inactive)

Biological target: Cyclin-dependent kinase 4 (Homo sapiens, UniProt P11802)
Details: not given

Sequence of Cyclin-dependent kinase 4 (P11802 whole entry): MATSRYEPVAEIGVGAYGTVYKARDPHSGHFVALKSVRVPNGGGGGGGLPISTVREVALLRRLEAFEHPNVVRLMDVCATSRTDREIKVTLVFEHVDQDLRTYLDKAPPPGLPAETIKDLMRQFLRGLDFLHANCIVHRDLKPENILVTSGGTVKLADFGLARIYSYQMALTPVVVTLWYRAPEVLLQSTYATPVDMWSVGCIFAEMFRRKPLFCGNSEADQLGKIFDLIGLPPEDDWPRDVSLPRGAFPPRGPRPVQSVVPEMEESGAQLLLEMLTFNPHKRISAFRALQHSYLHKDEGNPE

SMILES	Kd
Cc1cc(Nc2cc(N3CCN(C)CC3)nc(/C=C/c3ccccc3)n2)n[nH]1 [ENMD-2076]	> 30 µM (inactive)
COC(=O)[C@@]1(O)C[C@H]2O[C@]1(C)n1c3ccccc3c3c4c(c5c6ccccc6n2c5c31)C(=O)NC4 [K-252A]	0.014 µM
COc1cc2nccc(Oc3ccc(NC(=O)NC4CC4)c(Cl)c3)c2cc1C(N)=O [LENVATINIB]	> 30 µM (inactive)

Biological target: Activin receptor type-2B (Homo sapiens, UniProt Q13705)
Details: not given

Sequence of Activin receptor type-2B (Q13705 whole entry): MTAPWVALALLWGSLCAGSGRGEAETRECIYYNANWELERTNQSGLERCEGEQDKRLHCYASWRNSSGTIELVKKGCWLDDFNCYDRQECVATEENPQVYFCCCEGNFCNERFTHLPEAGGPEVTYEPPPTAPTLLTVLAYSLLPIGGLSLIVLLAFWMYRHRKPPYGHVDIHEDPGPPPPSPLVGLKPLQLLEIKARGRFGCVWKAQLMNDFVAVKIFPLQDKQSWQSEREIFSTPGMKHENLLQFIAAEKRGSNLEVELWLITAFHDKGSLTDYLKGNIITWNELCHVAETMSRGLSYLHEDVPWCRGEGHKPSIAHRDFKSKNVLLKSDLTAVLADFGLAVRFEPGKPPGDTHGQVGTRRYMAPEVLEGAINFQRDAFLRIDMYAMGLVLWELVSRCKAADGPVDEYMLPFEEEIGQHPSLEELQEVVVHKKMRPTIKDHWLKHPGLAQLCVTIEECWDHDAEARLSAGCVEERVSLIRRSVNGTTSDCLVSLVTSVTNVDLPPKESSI

SMILES	Kd
Cc1cc(Nc2cc(N3CCN(C)CC3)nc(/C=C/c3ccccc3)n2)n[nH]1 [ENMD-2076]	> 30 µM (inactive)
COC(=O)[C@@]1(O)C[C@H]2O[C@]1(C)n1c3ccccc3c3c4c(c5c6ccccc6n2c5c31)C(=O)NC4 [K-252A]	> 30 µM (inactive)
COc1cc2nccc(Oc3ccc(NC(=O)NC4CC4)c(Cl)c3)c2cc1C(N)=O [LENVATINIB]	> 30 µM (inactive)

Biological target: cAMP-dependent protein kinase catalytic subunit beta (Homo sapiens, UniProt P22694)
Details: not given

SMILES	Kd
Cc1cc(Nc2cc(N3CCN(C)CC3)nc(/C=C/c3ccccc3)n2)n[nH]1 [ENMD-2076]	> 30 µM (inactive)
COC(=O)[C@@]1(O)C[C@H]2O[C@]1(C)n1c3ccccc3c3c4c(c5c6ccccc6n2c5c31)C(=O)NC4 [K-252A]	> 30 µM (inactive)
COc1cc2nccc(Oc3ccc(NC(=O)NC4CC4)c(Cl)c3)c2cc1C(N)=O [LENVATINIB]	> 30 µM (inactive)

Biological target: Tyrosine-protein kinase Fyn (Homo sapiens, UniProt P06241)
Details: not given

Sequence of Tyrosine-protein kinase Fyn (P06241 whole entry): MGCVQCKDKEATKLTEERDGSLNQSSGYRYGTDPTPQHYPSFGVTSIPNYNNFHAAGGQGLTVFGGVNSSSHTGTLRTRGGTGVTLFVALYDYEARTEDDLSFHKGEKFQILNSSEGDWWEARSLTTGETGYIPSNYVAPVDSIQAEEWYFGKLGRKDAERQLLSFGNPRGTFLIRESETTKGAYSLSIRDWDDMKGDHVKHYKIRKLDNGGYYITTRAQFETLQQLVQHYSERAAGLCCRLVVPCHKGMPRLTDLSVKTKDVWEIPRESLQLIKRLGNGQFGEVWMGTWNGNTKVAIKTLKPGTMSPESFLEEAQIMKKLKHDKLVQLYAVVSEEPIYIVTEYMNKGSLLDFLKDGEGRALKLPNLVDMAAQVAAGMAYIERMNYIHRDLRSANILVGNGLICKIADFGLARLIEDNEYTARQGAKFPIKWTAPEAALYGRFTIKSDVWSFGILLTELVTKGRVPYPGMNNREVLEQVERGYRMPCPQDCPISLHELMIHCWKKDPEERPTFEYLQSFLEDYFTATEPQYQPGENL

SMILES	Kd
COC(=O)[C@@]1(O)C[C@H]2O[C@]1(C)n1c3ccccc3c3c4c(c5c6ccccc6n2c5c31)C(=O)NC4 [K-252A]	> 30 µM (inactive)
COc1cc2nccc(Oc3ccc(NC(=O)NC4CC4)c(Cl)c3)c2cc1C(N)=O [LENVATINIB]	> 30 µM (inactive)
